SMILES strings stand for the structures.

Assay type in all cases: biochemical
Assay [1] addresses T1, KDM4A (Homo sapiens, UniProt O75164).
T1 sequence (O75164 2-1064): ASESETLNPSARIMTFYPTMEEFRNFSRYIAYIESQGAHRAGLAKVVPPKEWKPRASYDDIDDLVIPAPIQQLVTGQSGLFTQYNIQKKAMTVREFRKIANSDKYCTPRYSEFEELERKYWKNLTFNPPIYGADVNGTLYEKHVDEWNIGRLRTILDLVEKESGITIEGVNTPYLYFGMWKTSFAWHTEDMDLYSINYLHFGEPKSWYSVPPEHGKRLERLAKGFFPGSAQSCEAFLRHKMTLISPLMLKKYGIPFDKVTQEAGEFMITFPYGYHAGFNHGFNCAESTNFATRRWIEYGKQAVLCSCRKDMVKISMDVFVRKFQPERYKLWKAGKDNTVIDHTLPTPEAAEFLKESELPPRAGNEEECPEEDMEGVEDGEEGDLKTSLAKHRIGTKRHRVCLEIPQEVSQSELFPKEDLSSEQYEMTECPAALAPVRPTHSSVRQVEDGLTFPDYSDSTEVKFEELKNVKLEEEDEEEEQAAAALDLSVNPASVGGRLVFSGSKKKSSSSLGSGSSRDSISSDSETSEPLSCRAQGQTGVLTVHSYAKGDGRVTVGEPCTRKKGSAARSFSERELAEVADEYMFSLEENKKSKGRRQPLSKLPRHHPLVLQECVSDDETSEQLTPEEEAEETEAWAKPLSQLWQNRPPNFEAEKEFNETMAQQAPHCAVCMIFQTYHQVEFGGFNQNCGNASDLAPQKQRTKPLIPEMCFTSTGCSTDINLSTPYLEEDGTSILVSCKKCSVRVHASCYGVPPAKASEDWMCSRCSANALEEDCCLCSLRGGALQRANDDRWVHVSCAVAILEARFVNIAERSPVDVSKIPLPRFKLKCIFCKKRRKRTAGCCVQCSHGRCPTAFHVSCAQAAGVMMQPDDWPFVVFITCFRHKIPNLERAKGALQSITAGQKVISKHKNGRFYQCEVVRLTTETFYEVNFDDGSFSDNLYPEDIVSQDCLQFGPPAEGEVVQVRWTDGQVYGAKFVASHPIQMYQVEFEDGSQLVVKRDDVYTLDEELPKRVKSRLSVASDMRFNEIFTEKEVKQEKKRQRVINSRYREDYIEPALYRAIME
As to the kind of experiment: KDM4A enzymatic screening assay and fluorescence assay at […].

Assay [2] deals with T1, KDM4A. As to the kind of experiment: fluorescence demethylase enzymatic assay, single dose […].
Assay [3] concerns the target T2, KDM4C (Homo sapiens, UniProt Q9H3R0).
T2 construct: KDM4C-GST recombinant enzyme
T2 sequence (Q9H3R0 1-1056): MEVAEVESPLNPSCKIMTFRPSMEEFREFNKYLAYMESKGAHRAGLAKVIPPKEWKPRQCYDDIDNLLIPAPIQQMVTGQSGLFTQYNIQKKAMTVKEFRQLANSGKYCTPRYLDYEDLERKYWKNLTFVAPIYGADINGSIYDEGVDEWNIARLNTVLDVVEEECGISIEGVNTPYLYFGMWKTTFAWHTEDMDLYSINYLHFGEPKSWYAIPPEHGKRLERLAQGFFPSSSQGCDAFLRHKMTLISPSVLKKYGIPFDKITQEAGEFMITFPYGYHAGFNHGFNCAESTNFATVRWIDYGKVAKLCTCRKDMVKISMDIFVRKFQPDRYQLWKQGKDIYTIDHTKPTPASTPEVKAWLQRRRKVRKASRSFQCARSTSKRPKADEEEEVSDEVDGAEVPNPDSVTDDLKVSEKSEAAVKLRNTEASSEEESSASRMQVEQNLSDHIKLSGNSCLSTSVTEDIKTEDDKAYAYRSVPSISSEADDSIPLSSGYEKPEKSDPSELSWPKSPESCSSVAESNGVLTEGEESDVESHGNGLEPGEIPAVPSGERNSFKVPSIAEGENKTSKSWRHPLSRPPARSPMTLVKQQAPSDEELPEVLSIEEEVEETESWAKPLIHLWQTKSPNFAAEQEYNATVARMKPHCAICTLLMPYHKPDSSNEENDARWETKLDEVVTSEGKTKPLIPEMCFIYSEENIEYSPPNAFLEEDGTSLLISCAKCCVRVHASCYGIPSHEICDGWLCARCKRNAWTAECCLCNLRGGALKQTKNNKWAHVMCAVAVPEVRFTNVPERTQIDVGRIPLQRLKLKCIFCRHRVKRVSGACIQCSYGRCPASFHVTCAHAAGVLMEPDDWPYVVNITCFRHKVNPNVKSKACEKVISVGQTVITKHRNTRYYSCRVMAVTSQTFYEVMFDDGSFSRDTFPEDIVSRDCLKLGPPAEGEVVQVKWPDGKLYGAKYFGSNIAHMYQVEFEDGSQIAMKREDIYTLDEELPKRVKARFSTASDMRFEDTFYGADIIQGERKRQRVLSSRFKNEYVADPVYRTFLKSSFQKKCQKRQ
Briefly: fluorescence demethylase enzymatic assay, dose curve.

In assay [4] the target is T1, KDM4A. As to the kind of experiment: AlphaLISA JMJD2A homogeneous demethylase assay, […] concentrations (fluorescence assay gave IC50 […]). Background: Alpha assays give light when donor and acceptor beads are brought close together.
The target of assay [5] is T3, KDM4B (Homo sapiens, UniProt O94953).
T3 construct: KDM4B-GST recombinant enzyme
T3 sequence (O94953 1-1096): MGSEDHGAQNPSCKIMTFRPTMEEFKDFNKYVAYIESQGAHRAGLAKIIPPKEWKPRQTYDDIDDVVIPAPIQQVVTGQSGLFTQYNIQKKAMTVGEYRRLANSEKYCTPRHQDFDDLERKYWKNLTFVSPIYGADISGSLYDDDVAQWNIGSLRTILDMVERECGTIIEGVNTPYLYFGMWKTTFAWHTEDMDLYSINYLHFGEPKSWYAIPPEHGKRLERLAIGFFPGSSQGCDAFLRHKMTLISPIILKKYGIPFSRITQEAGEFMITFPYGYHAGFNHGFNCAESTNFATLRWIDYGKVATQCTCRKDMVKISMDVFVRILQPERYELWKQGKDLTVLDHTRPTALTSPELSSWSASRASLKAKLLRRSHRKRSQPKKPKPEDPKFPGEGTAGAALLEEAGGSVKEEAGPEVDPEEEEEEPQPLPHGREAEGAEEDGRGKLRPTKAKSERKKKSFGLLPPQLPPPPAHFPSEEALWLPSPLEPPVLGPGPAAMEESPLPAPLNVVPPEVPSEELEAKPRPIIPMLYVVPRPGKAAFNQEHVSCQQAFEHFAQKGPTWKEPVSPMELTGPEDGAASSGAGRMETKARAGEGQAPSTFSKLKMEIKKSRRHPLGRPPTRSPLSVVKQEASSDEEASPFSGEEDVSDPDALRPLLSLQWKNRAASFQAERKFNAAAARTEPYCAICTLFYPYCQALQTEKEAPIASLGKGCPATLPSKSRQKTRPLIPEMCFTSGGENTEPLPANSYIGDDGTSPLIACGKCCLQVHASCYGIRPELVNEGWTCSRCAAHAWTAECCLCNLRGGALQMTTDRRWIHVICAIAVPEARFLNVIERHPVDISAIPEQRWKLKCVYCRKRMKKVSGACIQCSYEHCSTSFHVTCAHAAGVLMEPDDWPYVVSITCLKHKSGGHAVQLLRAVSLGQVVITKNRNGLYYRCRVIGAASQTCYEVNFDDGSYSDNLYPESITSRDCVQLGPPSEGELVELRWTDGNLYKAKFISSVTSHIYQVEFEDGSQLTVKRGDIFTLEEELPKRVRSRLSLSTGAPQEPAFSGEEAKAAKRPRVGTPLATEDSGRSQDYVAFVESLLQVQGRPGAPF
As to the kind of experiment: fluorescence demethylase enzymatic assay, dose curve.

Assay [6] deals with T4, KDM4D (Homo sapiens, UniProt Q6B0I6).
T4 construct: KDM4D-GST recombinant enzyme
T4 sequence (Q6B0I6 1-523): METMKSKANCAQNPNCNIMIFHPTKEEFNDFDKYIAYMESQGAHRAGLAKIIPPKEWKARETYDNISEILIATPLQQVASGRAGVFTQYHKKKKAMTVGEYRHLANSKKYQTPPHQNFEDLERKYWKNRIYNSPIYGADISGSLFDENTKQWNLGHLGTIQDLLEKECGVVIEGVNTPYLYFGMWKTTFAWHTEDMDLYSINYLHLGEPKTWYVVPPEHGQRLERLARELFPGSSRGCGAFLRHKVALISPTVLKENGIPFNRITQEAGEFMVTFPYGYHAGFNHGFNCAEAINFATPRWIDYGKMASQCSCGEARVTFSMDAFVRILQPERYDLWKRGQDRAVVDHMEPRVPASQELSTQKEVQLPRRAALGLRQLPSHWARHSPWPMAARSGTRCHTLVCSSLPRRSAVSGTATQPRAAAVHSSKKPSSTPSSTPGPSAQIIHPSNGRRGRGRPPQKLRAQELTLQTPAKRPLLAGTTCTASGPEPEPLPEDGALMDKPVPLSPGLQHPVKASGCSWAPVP
The description is as above.

On to `O=c1c(O)cccc2cc(O)c(O)c(O)c12` [9aa, 2,3,4,6-tetrahydroxy-5H-benzo[7]annulen-5-one], for which the “KDM4A enzymatic screening assay and fluorescence assay at 50 μM” value in assay [1] is given as “Purpurogallin 9aa”.

For `O=c1c(O)cccc2c(Br)cc(O)c(O)c12` [9ac, 1-bromo-3,4,6-trihydroxy-5H-benzo[7]annulen-5-one], at 50 µM the inhibition in assay [2] was 50%.

For the molecule `O=C(O)c1cc(O)c(=O)c2c(O)c(O)cc(Br)c2c1` [9bc, 1-bromo-3,4,6-trihydroxy-5-oxo-5H-benzo[7]annulene-8-carboxylic acid], in assay [2], the inhibition (usually the percentage by which the read-out fell short of the control) at 50 µM was found to be 80%.

For the molecule `O=C(O)c1cc(O)c(=O)c2c(O)c(O)cc(-c3ccccc3)c2c1` [9bf, 3,4,6-trihydroxy-5-oxo-1-phenyl-5H-benzo[7]annulene-8-carboxylic acid], the IC50 – broadly, the point on the concentration scale where inhibition reaches its midpoint – in assay [3] came to 38.9 µM; in assay [4], 10.1 µM; in assay [5], 35.9 µM; in assay [6], 28.5 µM.
